Assay results reported in ChEMBL document CHEMBL1201862, “PubChem BioAssay data set” (2004).
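Growth conditions: 96-well plates. Treatment: test compound, 48 hours, 5 concentrations. Analysis: linear interpolation between bracketing concentrations; unreached endpoints set to highest concentration. GI50: concentration for 50% inhibition of growth.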 Active and inactive are the calls of the source. Cut-off read from the data, not from the text of the source: active = GI50 up to about 1.1 µM and inactive = higher.

Columns and labels:
Experiment in all cases: growth of human tumour cells (NCI), 48 h
[1] = test system: HOP-92
[2] = test system: 786-0
[3] = test system: HCT-15
[4] = test system: IGROV-1
[5] = test system: HCT-116
[6] = test system: SF-295
[7] = test system: M19-MEL
[8] = test system: SNB-19
[9] = test system: UACC-62
[10] = test system: OVCAR-8
[11] = test system: M14
[12] = test system: DMS-273
[13] = test system: COLO 205
[14] = test system: RPMI-8226
[15] = test system: UACC-257
[16] = test system: UO-31
[17] = test system: SK-MEL-5
[18] = test system: NCI-H23
[19] = test system: Malme-3M
[20] = test system: OVCAR-4
[21] = test system: RXF 631
[22] = test system: SNB-78
[23] = test system: U-251
[24] = test system: ACHN
[25] = test system: SN12C
[26] = test system: DLD-1
[27] = test system: OVCAR-3
[28] = test system: HCC 2998
[29] = test system: A498
[30] = test system: K562
[31] = test system: OVCAR-5
[32] = test system: KM-20L2
[33] = test system: HT-29
[34] = test system: CCRF-CEM
[35] = test system: SNB-75
[36] = test system: A549
[37] = test system: NCI-H460
[38] = test system: EKVX
[39] = test system: SK-MEL-28
[40] = test system: SW-620
[41] = test system: SK-OV-3
[42] = test system: KM12
[43] = test system: NCI-H226
[44] = test system: HOP-62
[45] = test system: SF-268
[46] = test system: TK-10
[47] = test system: CAKI-1
[48] = test system: HOP-18
[49] = test system: SF-539
[50] = test system: LOX IMVI
[51] = test system: SK-MEL-2
[52] = test system: MOLT-4
[53] = test system: XF498
[54] = test system: HL-60
[55] = test system: RXF 393
[56] = test system: LXFL 529
[57] = test system: NCI-H522

SMILES: O=c1c2cc(Br)ccc2[nH]c(=S)n1-c1ccccc1
- GI50 [1]: > 100 µM (inactive)
- GI50 [2]: > 100 µM (inactive)
- GI50 [3]: > 100 µM
- GI50 [4]: > 100 µM (inactive)
- GI50 [5]: > 100 µM (inactive)
- GI50 [6]: > 100 µM (inactive)
- GI50 [7]: > 100 µM (inactive)
- GI50 [8]: > 100 µM (inactive)
- GI50 [9]: > 100 µM (inactive)
- GI50 [10]: > 100 µM (inactive)
- GI50 [11]: > 100 µM (inactive)
- GI50 [12]: > 100 µM (inactive)
- GI50 [13]: > 100 µM (inactive)
- GI50 [14]: > 100 µM (inactive)
- GI50 [15]: > 100 µM (inactive)
- GI50 [16]: > 100 µM (inactive)
- GI50 [17]: > 100 µM (inactive)
- GI50 [18]: > 100 µM (inactive)
- GI50 [19]: > 100 µM (inactive)
- GI50 [20]: > 100 µM (inactive)
- GI50 [21]: > 100 µM (inactive)
- GI50 [22]: > 100 µM (inactive)
- GI50 [23]: > 100 µM (inactive)
- GI50 [24]: > 100 µM (inactive)
- GI50 [25]: > 100 µM (inactive)
- GI50 [26]: > 100 µM (inactive)
- GI50 [27]: > 100 µM (inactive)
- GI50 [28]: > 100 µM (inactive)
- GI50 [29]: > 100 µM (inactive)
- GI50 [30]: > 100 µM (inactive)
- GI50 [31]: > 100 µM (inactive)
- GI50 [32]: > 100 µM (inactive)
- GI50 [33]: > 100 µM (inactive)
- GI50 [34]: > 100 µM (inactive)
- GI50 [35]: > 100 µM (inactive)
- GI50 [36]: > 100 µM (inactive)
- GI50 [37]: > 100 µM (inactive)
- GI50 [38]: > 100 µM (inactive)
- GI50 [39]: > 100 µM (inactive)
- GI50 [40]: > 100 µM (inactive)
- GI50 [41]: > 100 µM (inactive)
- GI50 [42]: > 100 µM (inactive)
- GI50 [43]: > 100 µM (inactive)
- GI50 [44]: > 100 µM (inactive)
- GI50 [45]: > 100 µM (inactive)
- GI50 [46]: > 100 µM (inactive)
- GI50 [47]: > 100 µM (inactive)
- GI50 [48]: > 100 µM (inactive)
- GI50 [49]: > 100 µM (inactive)
- GI50 [50]: > 100 µM (inactive)
- GI50 [51]: > 100 µM (inactive)

SMILES: CN(CC(=O)O)S(=O)(=O)c1ccc2ccccc2c1
- GI50 [1]: > 100 µM (inactive)
- GI50 [52]: > 100 µM (inactive)
- GI50 [2]: > 100 µM (inactive)
- GI50 [3]: > 100 µM
- GI50 [4]: > 100 µM (inactive)
- GI50 [6]: > 100 µM (inactive)
- GI50 [7]: > 100 µM (inactive)
- GI50 [8]: > 100 µM (inactive)
- GI50 [53]: > 100 µM (inactive)
- GI50 [9]: > 100 µM (inactive)
- GI50 [10]: > 100 µM (inactive)
- GI50 [11]: > 100 µM (inactive)
- GI50 [12]: > 100 µM (inactive)
- GI50 [13]: > 100 µM (inactive)
- GI50 [14]: > 100 µM (inactive)
- GI50 [15]: > 100 µM (inactive)
- GI50 [16]: > 100 µM (inactive)
- GI50 [17]: > 100 µM (inactive)
- GI50 [18]: > 100 µM (inactive)
- GI50 [19]: > 100 µM (inactive)
- GI50 [20]: > 100 µM (inactive)
- GI50 [21]: > 100 µM (inactive)
- GI50 [54]: > 100 µM (inactive)
- GI50 [23]: > 100 µM (inactive)
- GI50 [24]: > 100 µM (inactive)
- GI50 [25]: > 100 µM (inactive)
- GI50 [26]: > 100 µM (inactive)
- GI50 [55]: > 100 µM (inactive)
- GI50 [56]: > 100 µM (inactive)
- GI50 [27]: > 100 µM (inactive)
- GI50 [28]: > 100 µM (inactive)
- GI50 [29]: > 100 µM (inactive)
- GI50 [30]: > 100 µM (inactive)
- GI50 [31]: > 100 µM (inactive)
- GI50 [32]: > 100 µM (inactive)
- GI50 [33]: > 100 µM (inactive)
- GI50 [34]: > 100 µM (inactive)
- GI50 [35]: > 100 µM (inactive)
- GI50 [36]: > 100 µM (inactive)
- GI50 [37]: > 100 µM (inactive)
- GI50 [38]: > 100 µM (inactive)
- GI50 [39]: > 100 µM (inactive)
- GI50 [40]: > 100 µM (inactive)
- GI50 [41]: > 100 µM (inactive)
- GI50 [42]: > 100 µM (inactive)
- GI50 [45]: > 100 µM (inactive)
- GI50 [46]: > 100 µM (inactive)
- GI50 [47]: > 100 µM (inactive)
- GI50 [48]: > 100 µM (inactive)
- GI50 [49]: > 100 µM (inactive)
- GI50 [57]: > 100 µM (inactive)
- GI50 [50]: > 100 µM (inactive)
- GI50 [51]: > 100 µM (inactive)
